Measured values reported in PubChem BioAssay (NCI).
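Interpolation was linear, between the two tested concentrations surrounding the appropriate level; five concentrations were tested over 48 hours in 96-well plates. GI50: concentration for 50% inhibition of growth. TGI: concentration producing complete growth inhibition.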

Experiments:
Assay in all cases: DTP human tumour cell line panel, 48 h
M14 melanoma = system: M14 melanoma
NCI/ADR-RES ovarian = system: NCI/ADR-RES ovarian
SF-539 CNS = system: SF-539 CNS
CAKI-1 renal = system: CAKI-1 renal
NCI-H522 lung = system: NCI-H522 lung
BT-549 breast = system: BT-549 breast
HCT-116 colon = system: HCT-116 colon
T-47D breast = system: T-47D breast
HOP-92 NSCLC = system: HOP-92 NSCLC
SK-MEL-28 melanoma = system: SK-MEL-28 melanoma
OVCAR-4 ovarian = system: OVCAR-4 ovarian
DU-145 prostate = system: DU-145 prostate
SR leukemia = system: SR leukemia
MOLT-4 leukemia = system: MOLT-4 leukemia
SK-MEL-2 melanoma = system: SK-MEL-2 melanoma
UACC-257 melanoma = system: UACC-257 melanoma
TK-10 renal = system: TK-10 renal
NCI-H460 lung = system: NCI-H460 lung
OVCAR-8 ovarian = system: OVCAR-8 ovarian
786-0 renal = system: 786-0 renal
K-562 leukemia = system: K-562 leukemia
COLO 205 colon = system: COLO 205 colon
KM12 colon = system: KM12 colon
SF-295 CNS = system: SF-295 CNS
HCC-2998 colon = system: HCC-2998 colon
RXF 393 renal = system: RXF 393 renal
SK-OV-3 ovarian = system: SK-OV-3 ovarian
NCI-H226 lung = system: NCI-H226 lung
SF-268 CNS = system: SF-268 CNS
PC-3 prostate = system: PC-3 prostate
UACC-62 melanoma = system: UACC-62 melanoma
HT29 colon = system: HT29 colon
HOP-62 NSCLC = system: HOP-62 NSCLC
UO-31 renal = system: UO-31 renal
ACHN renal = system: ACHN renal
RPMI-8226 leukemia = system: RPMI-8226 leukemia
SNB-19 CNS = system: SNB-19 CNS
NCI-H23 lung = system: NCI-H23 lung
OVCAR-5 ovarian = system: OVCAR-5 ovarian
LOX IMVI melanoma = system: LOX IMVI melanoma
CCRF-CEM leukemia = system: CCRF-CEM leukemia
U251 CNS = system: U251 CNS
MALME-3M melanoma = system: MALME-3M melanoma
EKVX NSCLC = system: EKVX NSCLC
HCT-15 colon = system: HCT-15 colon
MCF7 breast = system: MCF7 breast
HS 578T breast = system: HS 578T breast
HL-60(TB) leukemia = system: HL-60(TB) leukemia
A549 NSCLC = system: A549 NSCLC
A498 renal = system: A498 renal
SNB-75 CNS = system: SNB-75 CNS
MDA-MB-231 breast = system: MDA-MB-231 breast
SW-620 colon = system: SW-620 colon
SK-MEL-5 melanoma = system: SK-MEL-5 melanoma
SN12C renal = system: SN12C renal
IGROV1 ovarian = system: IGROV1 ovarian
MDA-MB-435 = system: MDA-MB-435

## CC[C@]12C=CCN3CC[C@]4(C(=C(C(=O)OC)C1)Nc1cc5c(cc14)[C@@H]1[C@H](O5)[C@@H](O)[C@@]4(CC)CC(C(=O)OC)=C5Nc6cc(OC)ccc6[C@@]56CCN1[C@@H]46)[C@@H]32
M14 melanoma
  GI50: 163 nM
  TGI: 3140 nM
NCI/ADR-RES ovarian
  GI50: 388 nM
  TGI: > 50000 nM
SF-539 CNS
  GI50: 147 nM
  TGI: 1330 nM
CAKI-1 renal
  GI50: 87.7 nM
  TGI: 2130 nM
NCI-H522 lung
  GI50: 109 nM
  TGI: 349 nM
BT-549 breast
  GI50: 230 nM
  TGI: 2220 nM
HCT-116 colon
  GI50: 102 nM
  TGI: 352 nM
T-47D breast
  GI50: 155 nM
  TGI: 1330 nM
HOP-92 NSCLC
  GI50: 70.9 nM
  TGI: 4050 nM
SK-MEL-28 melanoma
  GI50: 457 nM
  TGI: 3260 nM
OVCAR-4 ovarian
  GI50: 181 nM
  TGI: > 50000 nM
DU-145 prostate
  GI50: 591 nM
  TGI: > 20400 nM
SR leukemia
  GI50: 137 nM
  TGI: 2820 nM
MOLT-4 leukemia
  GI50: 190 nM
  TGI: > 50000 nM
SK-MEL-2 melanoma
  GI50: 229 nM
  TGI: 2930 nM
UACC-257 melanoma
  GI50: 183 nM
  TGI: 3720 nM
TK-10 renal
  GI50: 128 nM
  TGI: 1050 nM
NCI-H460 lung
  GI50: 407 nM
  TGI: 5550 nM
OVCAR-8 ovarian
  GI50: 199 nM
  TGI: 2470 nM
786-0 renal
  GI50: 92.9 nM
  TGI: 1070 nM
K-562 leukemia
  GI50: 117 nM
  TGI: > 50000 nM
COLO 205 colon
  GI50: 108 nM
  TGI: 437 nM
KM12 colon
  GI50: 231 nM
  TGI: 3230 nM
SF-295 CNS
  GI50: 250 nM
  TGI: 13800 nM
HCC-2998 colon
  GI50: 130 nM
  TGI: 557 nM
RXF 393 renal
  GI50: 150 nM
  TGI: 613 nM
SK-OV-3 ovarian
  GI50: 167 nM
  TGI: 706 nM
NCI-H226 lung
  GI50: 160 nM
  TGI: 4300 nM
SF-268 CNS
  GI50: 343 nM
  TGI: 11700 nM
PC-3 prostate
  GI50: 225 nM
  TGI: 5140 nM
UACC-62 melanoma
  GI50: 103 nM
  TGI: 1630 nM
HT29 colon
  GI50: 161 nM
  TGI: 1810 nM
HOP-62 NSCLC
  GI50: 189 nM
  TGI: 3120 nM
UO-31 renal
  GI50: 131 nM
  TGI: 2180 nM
ACHN renal
  GI50: 174 nM
  TGI: 690 nM
RPMI-8226 leukemia
  GI50: 133 nM
  TGI: 576 nM
SNB-19 CNS
  GI50: 300 nM
  TGI: 14900 nM
NCI-H23 lung
  GI50: 171 nM
  TGI: 805 nM
OVCAR-5 ovarian
  GI50: 294 nM
  TGI: 5340 nM
LOX IMVI melanoma
  GI50: 29.6 nM
  TGI: 105 nM
CCRF-CEM leukemia
  GI50: 161 nM
  TGI: > 50000 nM
U251 CNS
  GI50: 174 nM
  TGI: 877 nM
MALME-3M melanoma
  GI50: 187 nM
  TGI: 3800 nM
EKVX NSCLC
  GI50: 253 nM
  TGI: 12300 nM
HCT-15 colon
  GI50: 137 nM
  TGI: 511 nM
MCF7 breast
  GI50: 121 nM
  TGI: > 16500 nM
HS 578T breast
  GI50: 211 nM
  TGI: > 50000 nM
HL-60(TB) leukemia
  GI50: 58.3 nM
A549 NSCLC
  GI50: 368 nM
  TGI: 6940 nM
A498 renal
  GI50: 98 nM
  TGI: 299 nM
SNB-75 CNS
  GI50: 345 nM
  TGI: 4440 nM
MDA-MB-231 breast
  GI50: 163 nM
  TGI: > 11400 nM
SW-620 colon
  GI50: 177 nM
  TGI: 1260 nM
SK-MEL-5 melanoma
  GI50: 227 nM
  TGI: 2980 nM
SN12C renal
  GI50: 236 nM
  TGI: 5960 nM
IGROV1 ovarian
  GI50: 152 nM
  TGI: 2010 nM
MDA-MB-435
  GI50: 173 nM
  TGI: 1460 nM
